Source: PubChem BioAssay (NCI)
Values joined by “and” are separate entries in the source; they are usually repeats but may differ in a detail not shown here. Equal values may be shown once.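 Step 1: Grow cells in 96-well plates. Step 2: Expose to compound for 48 hours at 5 concentrations. Step 3: Interpolate endpoints linearly; if unreached, use highest concentration. The concentration for 50% growth inhibition is given as GI50. At the TGI there is no net growth.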

Key:
Test in all cases: inhibition of tumour cell growth, NCI panel, 48 h
NCI-H226 lung = system: NCI-H226 lung
SK-MEL-28 melanoma = system: SK-MEL-28 melanoma
M14 melanoma = system: M14 melanoma
DU-145 prostate = system: DU-145 prostate
OVCAR-8 ovarian = system: OVCAR-8 ovarian
MOLT-4 leukemia = system: MOLT-4 leukemia
EKVX NSCLC = system: EKVX NSCLC
RXF 393 renal = system: RXF 393 renal
NCI-H522 lung = system: NCI-H522 lung
IGROV1 ovarian = system: IGROV1 ovarian

Structure (SMILES)	GI50 (NCI-H226 lung)	TGI (NCI-H226 lung)	GI50 (SK-MEL-28 melanoma)	TGI (SK-MEL-28 melanoma)	GI50 (M14 melanoma)	TGI (M14 melanoma)	GI50 (DU-145 prostate)	TGI (DU-145 prostate)	GI50 (OVCAR-8 ovarian)	TGI (OVCAR-8 ovarian)	GI50 (MOLT-4 leukemia)	TGI (MOLT-4 leukemia)	GI50 (EKVX NSCLC)	TGI (EKVX NSCLC)	GI50 (RXF 393 renal)	TGI (RXF 393 renal)	TGI (NCI-H522 lung)	TGI (IGROV1 ovarian)	GI50 (NCI-H522 lung)	GI50 (IGROV1 ovarian)
COc1cc(/C=C/C(=O)c2cc(F)c(Cl)cc2Cl)cc(OC)c1OC	79.9 µM	> 100 µM	32 µM	> 100 µM	43.9 µM	> 100 µM	68.6 µM	> 100 µM	15.8 µM	33.6 µM	12.9 µM	52.9 µM	> 100 µM	> 100 µM	17.2 µM	62.2 µM				
CCOc1ccccc1NC(=O)CCc1nnc2s/c(=C\CCc3ccccc3)c(=O)n12		> 100 µM		> 100 µM		> 100 µM				> 100 µM		> 100 µM				> 100 µM	> 100 µM	> 100 µM		
Cc1ccc(S(=O)(=O)N2CCC3(C(/C=C/c4ccccc4)=Nc4ccccc43)C2c2ccccc2)cc1 (centres undefined)		> 100 µM		> 100 µM		> 100 µM				> 100 µM				> 100 µM		> 100 µM	> 100 µM	24.6 µM		
Cc1ccc(S(=O)(=O)Oc2ccc3c4c(c(=O)oc3c2)CCCCC4)cc1	7.5 µM	> 100 µM	> 100 µM	> 100 µM	> 100 µM	> 100 µM	> 100 µM	> 100 µM	> 100 µM	> 100 µM	6.16 µM	> 100 µM					> 100 µM	> 100 µM	> 100 µM	> 100 µM
CC1CCCC(C(O)CC2CC(=O)N(c3ccccc3)C(=O)C2)C1=O (centres undefined)		> 100 µM		> 100 µM		> 100 µM				> 100 µM		> 100 µM		> 100 µM		> 100 µM	> 100 µM	> 100 µM		
C=CCNC1=C(C(=O)OCC)C(=O)CO1		> 100 µM		> 100 µM		> 100 µM				> 100 µM		> 100 µM		> 100 µM		> 100 µM	> 100 µM	> 100 µM		
C/C(=N\NC(=O)CC(=O)Nc1ccc(Cl)cc1)c1cc2ccccc2oc1=O		> 100 µM		> 100 µM		> 100 µM				> 100 µM		> 100 µM		> 100 µM		> 100 µM	> 100 µM	> 100 µM		
Cc1ccc(N=C2CSc3nnc(-c4csc5c4CCCC5)n3N2)cc1	> 50 µM	> 50 µM	8.24 µM	> 50 µM			0.209 µM	> 50 µM	0.223 µM	> 50 µM	0.213 µM	> 50 µM	0.209 µM	> 50 µM	0.162 µM	> 50 µM	0.432 µM	> 50 µM	0.114 µM	0.446 µM
CN(C)c1ccc(/C=C2\CNC/C(=C\c3ccc(N(C)C)cc3)C2=O)cc1		> 100 µM		42 µM		> 100 µM				43.7 µM		> 100 µM		> 100 µM		44 µM		97.1 µM		
Cc1c(O)c(=O)ccn1C1OC(CO)C(O)C1O (centres undefined)		> 100 µM		> 100 µM		> 100 µM				> 100 µM		> 100 µM		> 100 µM		> 100 µM	> 100 µM			
CC(=O)OCC1OC(OC2CC3C(C)(C)C(OC(C)=O)CC[C@]3(C)C3CCC45CC4(CC[C@H]5C(C)CC(O)C4OC4(C)C)[C@]23C)C(O)C(O)C1O (some centres undefined)		11.6 µM	2.99 µM	7.11 µM and 9.32 µM		6.75 µM and 6.61 µM			3 µM	8.24 µM and 9.67 µM	2.52 µM	1.09 µM and 7.69 µM	> 60 µM	> 60 µM and 11.7 µM		4 µM	5.33 µM and 3.91 µM	0.829 µM and 4.56 µM	1.91 µM	2.42 µM
COc1ccc2nc(NCCCNCCO)c3sc4ccc(F)cc4c(=O)c3c2c1	1.74 µM	3.49 µM	1.78 µM	3.21 µM	1.85 µM	3.48 µM	1.6 µM	3.04 µM			1.85 µM	3.97 µM	1.45 µM	2.94 µM	1.26 µM	2.61 µM	3.55 µM	2.63 µM	1.77 µM	1.25 µM
O=C1CC2CCCCC2=C1O (centres undefined)				> 100 µM						> 100 µM		> 100 µM		> 100 µM		> 100 µM	> 100 µM	> 100 µM		
O=C(CC/C(C/C(=N/O)c1ccc(F)cc1)=N/O)N(Cc1ccccc1)Cc1ccccc1		> 100 µM		> 100 µM		> 100 µM				> 100 µM		> 100 µM		> 100 µM		> 100 µM	> 100 µM	> 100 µM		
COc1cccc(/C=C/C(=O)c2ccc(Cl)cc2Cl)c1OC	9.96 µM	29.6 µM	14.2 µM	27.4 µM	13.7 µM	26.7 µM	11.4 µM	27.5 µM	3.73 µM	13.7 µM	3.04 µM	12.4 µM	13.6 µM	31.8 µM	4.07 µM	15.8 µM				
CCOP(=O)(CC(=O)C1=C(O)C(CCCNC(=O)OC(C)(C)C)N(Cc2ccc(OC)c(OC)c2)C1=O)OCC (centres undefined)		> 100 µM		> 100 µM		> 100 µM				> 100 µM		> 100 µM		> 100 µM		> 100 µM	> 100 µM	> 100 µM		
Cc1ccc(S(=O)(=O)CNC(=S)CCCC(=S)NCS(=O)(=O)c2ccc(C)cc2)cc1		> 100 µM				> 100 µM				> 100 µM		> 100 µM		> 100 µM		> 100 µM	> 100 µM	> 100 µM		
COc1ccc2cc(C(=O)/C=C/c3cccc(Cl)c3Cl)ccc2c1			22.7 µM	> 71.9 µM	6.51 µM	> 100 µM	9.57 µM	> 55.9 µM	14.9 µM	> 100 µM	27.5 µM	> 100 µM	20.1 µM	> 100 µM	2.79 µM	12.4 µM	> 24.6 µM	> 100 µM	0.614 µM	16.6 µM
